Assay results from US8592603B2, “Synthesis of 2-(4-aminophenyl) benzothiazole derivatives and use thereof” (Kaohsiung Medical University, priority 2011, dated 2013).

Experiments:
caspase-3 = assay: Caspase-3 colorimetric assay; format: cell-based, human; conditions: BCC cells, 6f-UVA treatment, compared with untreated control, p<0.01 (FIG. 4A)
Method: (A) The increased enzymatic activities of the caspase-3 in apoptotic were determined by colorimetric reaction. The cleavage of peptide by the caspase releases the chromophore pNA (p-nitroaniline), which can be quantified spectrophotometrically at a wavelength of 405 nm. (B) Dot plots for BCC cells treated with various concentrations of 6f-UVA and then stained with PI and an annexin V-FITC conjugate specifically detecting the exposure of PS residues at the cell surface. (C) Morphological observation and annexin V/PI double stain were used for the detection of fibroblasts apoptosis. Approximately 10000 cells from each group were analyzed by flow cytometry. Data shown are of a representative experiment repeated three times with similar results. ** p<0.01 as compared with the control.
Twenty-four hours after irradiation, cells were collected by centrifugation, washed once with PBS, and cell pellets were counted and resuspended in 25 μL/1×10^6 cells of cold lysis buffer and homogenized. Homogenates were centrifuged at 12,000 rpm for 10 min at 4° C., supernatants were used for measuring caspase-3 activity using an ELISA-based assay, according to the manufacturer's instructions. (R&D Systems, Minneapolis, Minn.). The results were presented as mean±SD.

BCC cells = assay: ATP content bioluminescence assay; format: cell-based, human
Method: (A) 6f-UVA induced ROS generation in BCC cells. Histogram of fluorescence vs cell count in BCC cells with various concentrations of 6f-UVA and stained with DCFH-DA. As a control, ROS was measured in the presence of catalase, a H2O2 scavenger. (B) The ΔΨmt of BCC cells after exposure to 6f-UVA. Cells were treated with 0, 2, and 4 μM Formula 6f for 4 h followed by 1 J/cm2 UVA irradiation, then stained with DiOC6 and analyzed immediately by flow cytometry as described under Materials and Methods. The number in M1 indicates the percentage of cells with reduced ΔΨmt. Approximately 10000 cells from each group were analyzed by flow cytometry. (C) Relative ATP levels were calculated as the percentage of the 0 μM level. Similar results were obtained in three independent experiments. *p<0.05, ** p<0.01 as compared with the control.
The amount of intracellular ATP was determined by bioluminescent assay based on the measurement of the light output of the luciferin-luciferase reaction. After treatment with various concentrations of 6f-UVA, total cell extracts from cultured BCC cells were obtained immediately by lysing solution. After centrifugation to remove cell debris, the supernatants were collected for ATP measurement. The total amount of intracellular ATP was determined according to the protocol provided with the ATPLite assay kit (Perkin Elmer, Boston, Mass.).

Nc1ccc(-c2nc3ccc(C(F)(F)F)cc3s2)cc1 [Formula 6f, 2-(4-Aminophenyl)-6-trifluoromethylbenzothiazole]
caspase-3 activity (caspase-3): increased | melting point: 181 to 183 °C | decrease of intracellular ATP content compared with untreated control (BCC cells; 2 μM 6f-UVA): about 30% | decrease of intracellular ATP content compared with untreated control (BCC cells; 4 μM 6f-UVA): ~45%
